The record followed here is US20130210846A1, “USE OF NOVEL PAN-CDK INHIBITORS FOR TREATING TUMORS” (BAYER INTELLECTUAL PROPERTY GMBH, priority 2010, published 2013).

Experiment [1] has as its system MIA PaCa-2. Kind of experiment: Proliferation assay MIA PaCa-2. The note with it: Homo sapiens, 96 h; MIA PaCa-2, pancreas carcinoma; 4 days, crystal violet. It is filed as cell-based. How it is done: (§1) Cultivated human tumor cells (originally obtained from ATCC, HeLa-MaTu and HeLa-MaTu-ADR, originally obtained from Epo GmbH, Berlin, Germany) were plated at a density of 1000 to 5000 cells/measuring point, depending on the growth rate of the cell line, in a 96-well multititer plate in 200 μl of growth medium (DMEM/HAMS F12, 2 mM L-glutamine, 10% fetal calf serum). After 24 hours the cells of one plate (zero-point plate) were stained with crystal violet (see below), whereas the medium of the other plates was replaced with fresh culture medium (200 μl), to which the test substances had been added at various concentrations (0 μM, and in the range 0.01-30 μM; the final concentration of the solvent dimethyl sulfoxide was 0.5%). The cells were incubated for 4 days in the presence of the test substances. Cellular proliferation was determined by staining the cells with crystal violet: the cells were fixed by adding 20 μl/measuring point of an 11% glutaraldehyde solution for 15 min at room temperature. After washing the fixed cells with water three times, the plates were dried at room temperature. The cells were stained by adding 100 μl/measuring point of a 0.1% crystal violet solution (pH adjusted to pH3 by adding acetic acid). After washing the stained cells with water three times, the plates were dried at room temperature. The dye was dissolved by adding 100 μl/measuring point of a 10% acetic acid solution. The extinction was determined photometrically at a wavelength of 595 nm. The percentage change in cell growth was calculated by standardization of the measured values to the extinction values of the zero-point plate (=0%) and the extinction of the untreated (0 μM) cells (=100%). The measured data were standardized to 0% inhibition (cell proliferation without inhibitor) and 100% inhibition (zero-point plate). The IC50 values were determined by means of a 4-parameter fit using the company's own software.
(§2) The substances were examined in the following cell lines which, in an exemplary manner, represent the stated indications: […]

Experiment [2] relates to HCT116. The experiment is described as follows: Proliferation assay HCT116. The experiment is classed as cell-based. The note with it: Homo sapiens, HCT-116, 96 h; HCT116, colon/rectum carcinoma; 4 days, crystal violet. How it is done:
as §1, §2

For experiment [3], the system named is A431. Kind of experiment: Proliferation assay A431. It is filed as cell-based. The following applies: Homo sapiens, A-431, 96 h; A431, skin: epidermis; 4 days, crystal violet. How it is done:
as §1, §2

Experiment [4] deals with H1975. The experiment is described as follows: Proliferation assay H1975. It is filed as cell-based. The note with it: Homo sapiens, NCI-H1975, 96 h; H1975, non-small-cell bronchial carcinoma; 4 days, crystal violet. As to the method: as §1, §2
Experiment [5] deals with NCI-H460. Kind of experiment: Proliferation assay NCI-H460. The experiment is classed as cell-based, human. The note with it: NCI-H460, non-small-cell bronchial carcinoma, 4 days, crystal violet. The method in brief: (§3)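 Human tumour cells plated 1000 to 5000 cells/well, treated after 24 h with compound (0.01-30 μM, 0.5% DMSO) for 4 days. Growth by crystal violet staining read at 595 nm, normalised to zero-point plate and untreated cells; IC50 from 4-parameter fit.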

Experiment [6] has as its system 786-O. The experiment is described as follows: Proliferation assay 786-O. The experiment is classed as cell-based. The note with it: Homo sapiens, 786-0, 96 h, kidney carcinoma, 4 days, crystal violet. As to the method: as §1, §2
In experiment [7] the test system is HT29. The experiment is described as follows: Proliferation assay HT29. The experiment is classed as cell-based. The following applies: Homo sapiens, HT-29, 96 h; HT29, colon/rectum carcinoma; 4 days, crystal violet. How it is done:
as §1, §2

Experiment [8] deals with MCF7. The experiment is described as follows: Proliferation assay MCF7. The experiment is classed as cell-based, human. The note with it: MCF7, estrogen receptor-positive mamma carcinoma, 4 days, crystal violet. The essentials:
as §3

In experiment [9] the test system is A549. Kind of experiment: Proliferation assay A549. It is filed as cell-based. The following applies: Homo sapiens, 96 h; A549, non-small-cell bronchial carcinoma; 4 days, crystal violet. How it is done: as §1, §2
Experiment [10] concerns the target T1, CDK2/CycE (Homo sapiens, UniProt P24941).
T1 construct: purchased ProQinase GmbH, Freiburg, Germany; host or cells: baculovirus-infected insect cells (Sf9)
Kind of experiment: CDK2/CycE kinase assay (Assay 2). It is filed as biochemical. The note with it: 0.5 μM ATP, histon IIIS, 10 min 22° C.; read-out: CDK2/CycE (Assay 2) Concentration for half-maximal inhibition of the enzyme activity, IC50.

Experiment [11] relates to DU145. The experiment is described as follows: Proliferation assay DU145. The experiment is classed as cell-based, human. The note with it: DU145, prostate carcinoma, 4 days, crystal violet. The essentials: as §3
For experiment [12], the system named is HeLa. Kind of experiment: Proliferation assay HeLa. It is filed as cell-based. The note with it: Homo sapiens, 96 h, cervix carcinoma, 4 days, crystal violet. As to the method:
as §1, §2

The test system of experiment [13] is HeLa-MaTu-ADR. The experiment is described as follows: Proliferation assay HeLa-MaTu-ADR. The experiment is classed as cell-based, human. The note with it: cervix carcinoma, 4 days, crystal violet. The essentials:
as §3

SMILES strings stand for the structures. pIC50: −log10 of the molar value.

Regarding `C[C@@H](O)[C@@H](C)Nc1nc(Nc2ccc(S(=N)(=O)C3CC3)cc2)ncc1C(F)(F)F` (mixture of isomers) [Example 4-SI-1, (RS)—S-Cyclopropyl-S-(4-{[4-{[(1R,2R)-2-hydroxy-1-methylpropyl]amino}-5-(trifluoromethyl)-pyrimidin-2-yl]amino}phenyl)sulfoximide], the pIC50 was 7.85 in experiment [1]; 7.70 in experiment [2]; 7.70 in experiment [3]; 7.80 in [4]; 7.80 in experiment [5] (Homo sapiens, NCI-H460, 96 h); 7.52 in experiment [6]. Moreover, the pIC50 in experiment [7] is 7.92; in experiment [8] (Homo sapiens, MCF7, 96 h), 7.47; in experiment [9] it was > 8.00; in experiment [10], 8.22; in [11] (Homo sapiens, DU-145, 96 h) it was 7.51; in experiment [12], 7.48. In experiment [13] (Homo sapiens, 96 h), the pIC50 is 7.80.

Consider `C[C@@H](O)[C@@H](C)Oc1nc(Nc2ccc(S(C)(=N)=O)cc2)ncc1C(F)(F)F` (mixture of isomers) [Example 2-SI-2, (RS)—S-(4-{[4-{[(1R,2R)-2-Hydroxy-1-methylpropyl]oxy}-5-(trifluoromethyl)pyrimidin-2-yl]-amino}phenyl)-S-methylsulfoximide], for which the pIC50 in experiment [5] is 7.80; in experiment [8] it was 7.96; in experiment [11], 8.05; in experiment [13] it was 8.15.

On to `C[C@@H](O)[C@@H](C)Oc1nc(Nc2ccc(S(C)(=N)=O)cc2)ncc1C(F)(F)F` (single isomer, unassigned) [Example 2-SI-2], for which the pIC50 is 7.72 in experiment [1]; 7.80 in experiment [2]; 7.77 in experiment [3]; 7.85 in [4]; 7.66 in [6]; 7.55 in experiment [7]. Besides, the pIC50 in [9] is 7.64; in [10], 8.30; in experiment [12], 7.89.
